Assay results published in PubChem BioAssay (NCI).
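Growth conditions: 96-well plates. Treatment: test compound, 48 hours, 5 concentrations. Analysis: linear interpolation between bracketing concentrations; unreached endpoints set to highest concentration. GI50 marks 50% less growth. TGI: concentration producing complete growth inhibition.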

Legend:
Test in all cases: growth of human tumour cells (NCI), 48 h; in the data active = GI50 below about 0.43 µM; inactive = the rest
[1] = system: M14 melanoma
[2] = system: SR leukemia
[3] = system: MOLT-4 leukemia
[4] = system: K-562 leukemia
[5] = system: CAKI-1 renal
[6] = system: SK-OV-3 ovarian
[7] = system: OVCAR-4 ovarian
[8] = system: SK-MEL-5 melanoma
[9] = system: RPMI-8226 leukemia
[10] = system: MCF7 breast
[11] = system: SF-539 CNS
[12] = system: U251 CNS
[13] = system: HCT-15 colon
[14] = system: UACC-62 melanoma
[15] = system: HS 578T breast
[16] = system: UO-31 renal
[17] = system: OVCAR-3 ovarian
[18] = system: COLO 205 colon
[19] = system: MDA-MB-435
[20] = system: RXF 393 renal
[21] = system: HCT-116 colon
[22] = system: BT-549 breast
[23] = system: OVCAR-8 ovarian
[24] = system: NCI-H23 lung
[25] = system: SNB-75 CNS
[26] = system: HT29 colon
[27] = system: SF-268 CNS
[28] = system: SW-620 colon
[29] = system: IGROV1 ovarian
[30] = system: NCI-H460 lung
[31] = system: NCI-H522 lung
[32] = system: A549 NSCLC
[33] = system: ACHN renal
[34] = system: SNB-19 CNS
[35] = system: MALME-3M melanoma
[36] = system: HOP-92 NSCLC
[37] = system: TK-10 renal
[38] = system: 786-0 renal
[39] = system: UACC-257 melanoma
[40] = system: EKVX NSCLC
[41] = system: PC-3 prostate
[42] = system: OVCAR-5 ovarian
[43] = system: NCI/ADR-RES ovarian
[44] = system: KM12 colon
[45] = system: SN12C renal
[46] = system: SK-MEL-28 melanoma
[47] = system: SF-295 CNS
[48] = system: DU-145 prostate
[49] = system: SK-MEL-2 melanoma
[50] = system: HOP-62 NSCLC
[51] = system: HL-60(TB) leukemia
[52] = system: T-47D breast
[53] = system: HCC-2998 colon
[54] = system: LOX IMVI melanoma
[55] = system: NCI-H226 lung
[56] = system: MDA-MB-231 breast

Cc1ccccc1NC(=O)c1cc2ccccc2cc1O
59.3 µM: TGI [23]
37.1 µM: TGI [10]
15.2 µM: TGI [56]
91.8 µM: TGI [40]
14.6 µM: TGI [6]
30.3 µM: TGI [29]
7.23 µM: TGI [20]
7.29 µM: TGI [30] | TGI [35]
6.6 µM: TGI [24]
15.1 µM: TGI [21]
44.9 µM: TGI [25]
8.81 µM: TGI [41]
26.2 µM: TGI [53]
16.2 µM: TGI [39]
8.38 µM: TGI [15]
8.43 µM: TGI [22]
5.94 µM: TGI [36]
10.4 µM: TGI [33]
5.58 µM: TGI [8]
7.88 µM: TGI [50]
9.18 µM: TGI [45]
7.34 µM: TGI [51]
9.39 µM: TGI [31]
7.77 µM: TGI [17]
8.9 µM: TGI [9]
8.05 µM: TGI [49]
inactive: GI50 [1] 4.08 µM | GI50 [2] 4.84 µM | GI50 [3] 3.98 µM | GI50 [4] 5.23 µM | GI50 [5] 2010 nM | GI50 [6] 2640 nM | GI50 [7] 3.44 µM | GI50 [8] 2380 nM | GI50 [9] 2830 nM | GI50 [10] 3.46 µM | GI50 [11] 3.55 µM | GI50 [12] 3.56 µM | GI50 [13] 3.84 µM | GI50 [14] 3.48 µM | GI50 [15] 3.12 µM | GI50 [16] 3.54 µM | GI50 [17] 2560 nM | GI50 [18] 13.8 µM | GI50 [19] 3.04 µM | GI50 [20] 2780 nM | GI50 [21] 3.45 µM | GI50 [22] 3.46 µM | GI50 [23] 3.46 µM | GI50 [24] 2360 nM | GI50 [25] 2430 nM | GI50 [26] 7.54 µM | GI50 [27] 3.68 µM | GI50 [28] 3.96 µM | GI50 [29] 2650 nM | GI50 [30] 2770 nM | GI50 [31] 2620 nM | GI50 [32] 3.48 µM | GI50 [33] 3.17 µM | GI50 [34] 4.6 µM | GI50 [35] 1980 nM | GI50 [36] 2390 nM | GI50 [37] 4.2 µM | GI50 [38] 3.41 µM | GI50 [39] 3.52 µM | GI50 [40] 2360 nM | GI50 [41] 2700 nM | GI50 [42] 5.88 µM | GI50 [43] 2850 nM | GI50 [44] 3.36 µM | GI50 [45] 2620 nM | GI50 [46] 5.09 µM | GI50 [47] 3.03 µM | GI50 [48] 4.03 µM | GI50 [49] 3.33 µM | GI50 [50] 2470 nM | GI50 [51] 2500 nM | GI50 [52] 3.51 µM | GI50 [53] 4.4 µM | GI50 [54] 3.26 µM | GI50 [55] 3.59 µM | GI50 [56] 3.17 µM
> 100 µM: TGI [1] | TGI [2] | TGI [3] | TGI [4] | TGI [7] | TGI [12] | TGI [13] | TGI [14] | TGI [16] | TGI [19] | TGI [26] | TGI [27] | TGI [28] | TGI [32] | TGI [34] | TGI [37] | TGI [38] | TGI [44] | TGI [46] | TGI [48] | TGI [52] | TGI [54] | TGI [55]
24.1 µM: TGI [11]
5.87 µM: TGI [5]
28.6 µM: TGI [18]
85.6 µM: TGI [42]
24.2 µM: TGI [47]
8.79 µM: TGI [43]
